Source: ChEMBL document CHEMBL1130589, “Synthesis and evaluation of a novel series of phosphodiesterase IV inhibitors. A potential treatment for asthma” (Bioorg Med Chem Lett, 1998)

molecular target: T1, Phosphodiesterase 4 (Homo sapiens, UniProt P27815+Q08499+Q07343+Q08493); experiment: Inhibition of Rolipram binding to PDE4; assay type: protein assay

| Structure (SMILES) | IC50 [nM] |
| --- | --- |
| CCCn1cc(C(=O)NCCc2ccncc2)c(=O)c2cc(C(F)(F)F)ccc21.Cl | 10000 |

molecular target: T1, Phosphodiesterase 4; experiment: (§1) Inhibition of Rolipram binding to PDE4 at 1 uM; assay type: protein assay

| Structure (SMILES) | IC50 [nM] |
| --- | --- |
| CCn1cc(C(=O)N/N=C/c2ccccc2Cl)c(=O)c2cc(C(F)(F)F)ccc21 | 10000 |

molecular target: T1, Phosphodiesterase 4; experiment: Inhibition of phosphodiesterase 4; assay type: protein assay

| Structure (SMILES) | IC50 [nM] |
| --- | --- |
| CCn1cc(C(=O)NCCc2ccncc2)c(=O)c2cc3c(cc21)OCO3 | 23000 |
| CCn1cc(C(=O)NCCc2ccccc2)c(=O)c2cc(C(F)(F)F)ccc21 | 600 |
| CCn1cc(C(=O)N/N=C/c2ccccc2Cl)c(=O)c2cc(C(F)(F)F)ccc21 | 1100 |
| CCn1cc(C(=O)NCCc2ccncc2)c(=S)c2cc(C(F)(F)F)ccc21 | 460 |
| CC1CCc2cc(F)cc3c(=O)c(C(=O)NCCc4ccncc4)cn1c23 (configuration not stated) | 7000 |
| CCn1cc(C(=O)NC2CCc3cc(OC)c(OC)cc32)c(=O)c2cc(C(F)(F)F)ccc21 (configuration not stated) | 900 |
| CCn1cc(C(=O)N(C)CCc2ccccc2)c(=O)c2cc(C(F)(F)F)ccc21 | 49000 |
| CCCn1cc(C(=O)NCCc2ccncc2)c(=O)c2cc(C(F)(F)F)ccc21.Cl | 1700 |
| CCn1cc(C(=O)NC2CCc3cc(NC(C)=O)ccc32)c(=O)c2cnc(N3CCCC3)nc21 (configuration not stated) | 1800 |
| CCn1cc(C(=O)NCCc2ccncc2)c(=O)c2cc(C(F)(F)F)ccc21 | 1500 |
| CCn1cc(C(=O)NCCc2ccncc2)c(=O)c2cnc(N3CCCC3)nc21 | 1200 |

molecular target: T1, Phosphodiesterase 4; experiment: as §1; assay type: protein assay

| Structure (SMILES) | inhibition [%] |
| --- | --- |
| CCn1cc(C(=O)NCCc2ccccc2)c(=O)c2cc(C(F)(F)F)ccc21 | 8 |
| CCn1cc(C(=O)NCCc2ccncc2)c(=S)c2cc(C(F)(F)F)ccc21 | 15 |
| CCn1cc(C(=O)NC2CCc3cc(OC)c(OC)cc32)c(=O)c2cc(C(F)(F)F)ccc21 (configuration not stated) | 22 |
| CCn1cc(C(=O)NC2CCc3cc(NC(C)=O)ccc32)c(=O)c2cnc(N3CCCC3)nc21 (configuration not stated) | 17 |
| CCn1cc(C(=O)NCCc2ccncc2)c(=O)c2cnc(N3CCCC3)nc21 | 11 |

molecular target: T1, Phosphodiesterase 4; experiment: Inhibition of Rolipram binding to PDE4 at 10 uM; assay type: protein assay

| Structure (SMILES) | inhibition [%] |
| --- | --- |
| CCn1cc(C(=O)NCCc2ccncc2)c(=O)c2cc3c(cc21)OCO3 | 31 |
| CC1CCc2cc(F)cc3c(=O)c(C(=O)NCCc4ccncc4)cn1c23 (configuration not stated) | 8 |
| CCn1cc(C(=O)NCCc2ccncc2)c(=O)c2cc(C(F)(F)F)ccc21 | 24 |

molecular target: T1, Phosphodiesterase 4; experiment: Inhibition of Rolipram binding to PDE4 at 100 uM; assay type: protein assay

| Structure (SMILES) | inhibition [%] |
| --- | --- |
| CCn1cc(C(=O)N(C)CCc2ccccc2)c(=O)c2cc(C(F)(F)F)ccc21 | 15 |

molecular target: T1, Phosphodiesterase 4; experiment: Relative inhibition of phosphodiesterase 4 activity and Rolipram binding to PDE4; assay type: protein assay

| Structure (SMILES) | Ratio |
| --- | --- |
| CCn1cc(C(=O)NCCc2ccncc2)c(=O)c2cc3c(cc21)OCO3 | 1 |
| CCn1cc(C(=O)NCCc2ccccc2)c(=O)c2cc(C(F)(F)F)ccc21 | < 0.6 |
| CCn1cc(C(=O)NCCc2ccncc2)c(=S)c2cc(C(F)(F)F)ccc21 | < 0.46 |
| CC1CCc2cc(F)cc3c(=O)c(C(=O)NCCc4ccncc4)cn1c23 (configuration not stated) | < 0.7 |
| CCn1cc(C(=O)NC2CCc3cc(OC)c(OC)cc32)c(=O)c2cc(C(F)(F)F)ccc21 (configuration not stated) | < 0.9 |
| CCn1cc(C(=O)N(C)CCc2ccccc2)c(=O)c2cc(C(F)(F)F)ccc21 | < 0.49 |
| CCCn1cc(C(=O)NCCc2ccncc2)c(=O)c2cc(C(F)(F)F)ccc21.Cl | 0.17 |
| CCn1cc(C(=O)NC2CCc3cc(NC(C)=O)ccc32)c(=O)c2cnc(N3CCCC3)nc21 (configuration not stated) | < 1 |
| CCn1cc(C(=O)NCCc2ccncc2)c(=O)c2cc(C(F)(F)F)ccc21 | < 0.15 |
| CCn1cc(C(=O)NCCc2ccncc2)c(=O)c2cnc(N3CCCC3)nc21 | < 1 |
